Test results as given in patent US20260109715A1, “IMIDAZOPYRIDINE DERIVATIVES WITH BICYCLIC STRUCTURE” (PUBLIC UNIVERSITY CORPORATION YOKOHAMA CITY UNIVERSITY, priority 2022, published 2026).
Where a name gives a salt, the structure may show the parent alone. Read-outs that look alike come from different tables or passages of the source.

Assays:
[1] = system: Snhg1 transcript (NMD target gene) in EMT6 murine breast cancer cell line; assay: Measurement of NMD inhibitory activity in cells (increase in Snhg1 transcript, real-time PCR); parameters: species or system mouse; details: 6 hours treatment, concentration giving 1/2 of maximum Snhg1 fold change of positive control, read-out: Test Example 2 Cell-based Snhg1 EC50
Protocol: The NMD inhibitory activity of a compound of the present invention or a pharmaceutically acceptable salt thereof in cells can be measured, for example, by the method described below. EMT6 murine breast cancer cell line is treated with a test substance in vitro for 6 hours, and the increase in the transcript of Snhg1, a known NMD target gene, is quantified as an indicator of NMD inhibition. Quantification is performed by real-time PCR.
NMD inhibitory activity was measured by treating EMT6 murine breast cancer cell line (ATCC) with a test substance and quantifying the increase in the transcript of Snhg1, an NMD target gene (see F. Usui, et al., Scientific Reports volume 9, Article number: 1279 (2019) for the NMD target gene). That is, EMT6 cells were suspended in Waymouth's medium (Gibco, 15% FBS) and seeded in a 96-well plate at 2×10^4 cells/well. The cells were cultured for 1 day. The next day, serially diluted test substance (DMSO solution, final DMSO concentration: 2%) was added. After culturing for 6 hours, the supernatant was removed, and RNA was extracted using the RNeasy 96 kit (QIAGEN, 74182). After synthesizing cDNA using the High Capacity cDNA Reverse Transcription kit (Applied Biosystems, 4368813), the cDNA was mixed with PrimeTime Gene Expression Master Mix (Integrated DNA Technologies) and various probes, and gene expression was quantified using QuantStudio 6 Flex (Thermo Fisher Scientific Inc.). For the probe for the Snhg1 gene, which is an NMD target, Mm.PT.58.44039547 (FAM)(Integrated DNA Technologies) was used, and for the probe for the Tbp gene, which is an endogenous control, Mm00446973_m1 Tbp (VIC-PL) (Applied Biosystems) was used. The relative quantification of Snhg1 transcripts was calculated by the ΔΔCT method, using Thp as an endogenous control and setting the expression level of Snhg1 in untreated wells to 1.
A known NMD inhibitory compound (pyrimidine derivative Example 11i, Bioorg Med Chem Lett. 2012, 22(21), 6636-41) was used as a positive control drug for NMD inhibition. The NMD inhibitory activity of the test substance-added well was calculated as follows: the maximum fold change in Sngh1 expression in the positive control drug-added well relative to that in the untreated well was defined as the maximum NMD inhibitory activity, and the EC50 (compound concentration showing 50%/activity) of the test substance showing a ½-fold change was calculated by the GROWTH function of Microsoft Excel.

human SMG1 enzyme = human SMG1 enzyme (Homo sapiens, UniProt Q96Q15); assay: Measurement of SMG1 kinase activity (ADP-Glo Kinase Assay); type: biochemical; details: purified human SMG1 enzyme 5 nM, Upf1 peptide substrate, ATP 4 μM; qAC50 synonymous with IC50; read-out: Test Example 1 ADP-Glo IC50
Description: The SMG1 kinase inhibitory activity of a compound of the present invention or a pharmaceutically acceptable salt thereof can be measured, for example, by the method described below. Using purified human SMG1 protein and a substrate peptide as materials, the kinase activity can be measured by the ADP-Glo Kinase Assay; the SMG1 kinase inhibitory activity of a test substance can be evaluated by comparing the kinase activity in the presence and absence of the test substance.
The reaction was performed by the ADP-Glo Kinase Assay (Promega, catalog number V9102) using a 384-well plate under the conditions of an assay buffer (100 mM HEPES (pH 7.5), 50 mM NaCl, 10 mM MnCl2, 0.01% BSA, 0.1% Tween 20.5 mM TCEP). After incubating a test substance (DMSO solution; final DMSO concentration: 1%) and purified human SMG1 enzyme (Genes Dev. 2011 Jan. 15; 25(2): 153-164, produced by Daiichi Sankyo RD Novare Co., Ltd.; final concentration: 5 nM) at room temperature for 15 minutes, a substrate, Upf1 peptide (Biotin-(PEG8) QIDVALSQDSTYQG, produced by Eurofins genomics; final concentration: 8 μg/mL), and ATP (Promega: 4 μM) were added, and the mixture was reacted at room temperature for 60 minutes (see Non-Patent Literature R. Melero, et al., Structure Volume 22, Issue 8, 5 Aug. 2014, Pages 1105-1119 for the Upf1 peptide). ADP-Glo Reagent was added, and the mixture was reacted at room temperature for 40 minutes. Kinase Detection Reagent was added, and the mixture was reacted for another 30 minutes. The luminescence intensity was measured using EnVision (PerkinElmer).
The activity value (%) of the test substance-added well was calculated from the following formula, where the average luminescence intensity of the DMSO-added well was 0% and the average luminescence intensity of the SMG1 enzyme-free well was −100%.
The qAC50 (compound concentration showing 50% inhibition, synonymous with IC50) of the test substance was calculated using the activity value (%) at each concentration by Smart fit of Screener (Genedata). Smart fit is a general 4-parameter logistic regression model.

Chain of human SMG1 enzyme (Q96Q15 whole entry): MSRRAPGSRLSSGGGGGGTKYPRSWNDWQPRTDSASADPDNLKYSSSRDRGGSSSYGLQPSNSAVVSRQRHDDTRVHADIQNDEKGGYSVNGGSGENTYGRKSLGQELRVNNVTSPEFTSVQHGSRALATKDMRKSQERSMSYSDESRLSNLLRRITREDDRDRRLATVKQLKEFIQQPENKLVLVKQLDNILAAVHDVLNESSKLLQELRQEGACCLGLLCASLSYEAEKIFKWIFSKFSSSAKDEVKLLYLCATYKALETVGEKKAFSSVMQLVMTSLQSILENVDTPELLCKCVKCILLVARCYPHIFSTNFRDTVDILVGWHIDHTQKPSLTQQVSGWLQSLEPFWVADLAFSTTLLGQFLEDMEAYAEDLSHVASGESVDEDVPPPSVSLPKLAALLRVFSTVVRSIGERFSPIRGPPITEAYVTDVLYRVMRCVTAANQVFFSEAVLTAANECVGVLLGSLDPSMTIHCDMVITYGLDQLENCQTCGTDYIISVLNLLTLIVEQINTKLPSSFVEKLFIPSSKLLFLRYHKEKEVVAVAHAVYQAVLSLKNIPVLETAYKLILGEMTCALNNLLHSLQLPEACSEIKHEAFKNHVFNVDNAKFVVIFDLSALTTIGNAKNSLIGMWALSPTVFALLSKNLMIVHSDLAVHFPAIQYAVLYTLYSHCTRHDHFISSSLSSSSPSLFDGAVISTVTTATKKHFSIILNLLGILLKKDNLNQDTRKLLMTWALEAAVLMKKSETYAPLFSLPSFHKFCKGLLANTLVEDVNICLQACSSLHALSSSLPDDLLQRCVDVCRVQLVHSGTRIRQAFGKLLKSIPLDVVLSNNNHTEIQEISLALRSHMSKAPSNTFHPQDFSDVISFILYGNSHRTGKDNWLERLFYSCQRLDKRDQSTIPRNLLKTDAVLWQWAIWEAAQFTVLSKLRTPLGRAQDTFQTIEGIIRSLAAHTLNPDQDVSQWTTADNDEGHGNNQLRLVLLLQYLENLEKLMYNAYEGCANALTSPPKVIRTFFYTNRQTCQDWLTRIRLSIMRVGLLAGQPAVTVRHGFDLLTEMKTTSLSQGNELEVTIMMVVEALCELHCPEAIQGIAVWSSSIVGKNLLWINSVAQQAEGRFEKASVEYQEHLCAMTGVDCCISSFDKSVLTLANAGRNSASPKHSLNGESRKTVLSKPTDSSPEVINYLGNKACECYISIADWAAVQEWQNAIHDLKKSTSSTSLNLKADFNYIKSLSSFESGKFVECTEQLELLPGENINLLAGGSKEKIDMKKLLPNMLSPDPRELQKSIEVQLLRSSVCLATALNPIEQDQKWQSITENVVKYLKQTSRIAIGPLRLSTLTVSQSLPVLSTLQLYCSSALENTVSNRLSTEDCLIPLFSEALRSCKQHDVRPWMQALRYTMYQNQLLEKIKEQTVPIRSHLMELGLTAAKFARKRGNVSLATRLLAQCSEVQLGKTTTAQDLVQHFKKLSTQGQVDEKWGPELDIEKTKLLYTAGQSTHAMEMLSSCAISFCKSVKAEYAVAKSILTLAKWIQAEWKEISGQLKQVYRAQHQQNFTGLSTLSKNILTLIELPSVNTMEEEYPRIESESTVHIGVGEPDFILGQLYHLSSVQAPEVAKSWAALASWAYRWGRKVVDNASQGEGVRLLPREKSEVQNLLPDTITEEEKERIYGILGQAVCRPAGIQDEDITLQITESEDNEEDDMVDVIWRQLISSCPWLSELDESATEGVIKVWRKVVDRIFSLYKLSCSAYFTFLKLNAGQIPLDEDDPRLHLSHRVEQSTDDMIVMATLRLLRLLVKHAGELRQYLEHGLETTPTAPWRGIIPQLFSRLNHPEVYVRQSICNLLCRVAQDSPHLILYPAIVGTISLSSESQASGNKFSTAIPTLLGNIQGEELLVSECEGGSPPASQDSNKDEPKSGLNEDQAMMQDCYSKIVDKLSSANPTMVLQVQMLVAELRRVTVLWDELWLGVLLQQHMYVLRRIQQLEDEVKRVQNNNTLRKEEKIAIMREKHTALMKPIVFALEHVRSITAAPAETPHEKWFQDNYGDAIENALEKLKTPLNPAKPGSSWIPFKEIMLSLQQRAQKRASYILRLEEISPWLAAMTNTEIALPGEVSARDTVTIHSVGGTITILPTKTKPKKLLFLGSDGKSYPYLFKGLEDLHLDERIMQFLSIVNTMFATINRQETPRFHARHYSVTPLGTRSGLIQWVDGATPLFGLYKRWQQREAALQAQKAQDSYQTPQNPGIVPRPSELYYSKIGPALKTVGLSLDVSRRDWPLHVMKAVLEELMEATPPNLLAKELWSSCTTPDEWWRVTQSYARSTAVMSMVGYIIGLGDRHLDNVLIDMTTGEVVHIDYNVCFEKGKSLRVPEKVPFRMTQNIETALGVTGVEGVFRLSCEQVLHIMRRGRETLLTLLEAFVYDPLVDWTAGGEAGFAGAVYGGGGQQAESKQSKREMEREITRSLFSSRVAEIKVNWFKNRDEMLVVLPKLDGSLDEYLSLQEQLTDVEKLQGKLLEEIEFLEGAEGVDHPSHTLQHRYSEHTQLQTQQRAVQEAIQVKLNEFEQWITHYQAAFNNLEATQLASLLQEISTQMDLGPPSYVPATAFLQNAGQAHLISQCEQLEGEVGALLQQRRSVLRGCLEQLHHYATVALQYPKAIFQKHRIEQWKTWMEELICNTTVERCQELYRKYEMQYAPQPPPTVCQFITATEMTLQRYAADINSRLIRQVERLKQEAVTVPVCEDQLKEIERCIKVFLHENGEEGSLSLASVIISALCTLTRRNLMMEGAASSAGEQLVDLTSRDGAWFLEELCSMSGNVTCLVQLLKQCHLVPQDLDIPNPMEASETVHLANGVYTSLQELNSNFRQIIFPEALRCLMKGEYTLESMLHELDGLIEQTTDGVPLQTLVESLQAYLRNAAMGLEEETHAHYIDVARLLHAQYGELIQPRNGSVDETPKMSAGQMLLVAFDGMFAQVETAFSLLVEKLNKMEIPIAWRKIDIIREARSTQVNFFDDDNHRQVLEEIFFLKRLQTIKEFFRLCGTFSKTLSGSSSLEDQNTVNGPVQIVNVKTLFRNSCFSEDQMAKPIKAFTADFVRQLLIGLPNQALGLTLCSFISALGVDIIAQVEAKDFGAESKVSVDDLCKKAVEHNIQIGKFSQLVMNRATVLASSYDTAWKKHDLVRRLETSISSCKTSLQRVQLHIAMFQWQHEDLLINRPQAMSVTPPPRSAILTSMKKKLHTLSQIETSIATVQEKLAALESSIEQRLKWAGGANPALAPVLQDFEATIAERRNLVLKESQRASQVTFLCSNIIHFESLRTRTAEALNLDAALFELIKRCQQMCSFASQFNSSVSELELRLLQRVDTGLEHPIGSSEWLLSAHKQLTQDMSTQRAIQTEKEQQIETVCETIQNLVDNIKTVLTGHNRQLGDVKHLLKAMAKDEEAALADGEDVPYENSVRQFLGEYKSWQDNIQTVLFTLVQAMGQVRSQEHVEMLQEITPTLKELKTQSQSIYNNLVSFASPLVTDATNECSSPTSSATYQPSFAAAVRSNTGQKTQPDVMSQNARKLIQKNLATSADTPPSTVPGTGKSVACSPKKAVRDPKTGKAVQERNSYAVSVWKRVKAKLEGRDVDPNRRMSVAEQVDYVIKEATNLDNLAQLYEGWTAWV

| EC50 [1] | IC50 (human SMG1 enzyme) | EC50 ([1]; Mus musculus) | Molecule |
| --- | --- | --- | --- |
| 40 nM | 1.9 nM | – | 5-(2-chloro-6-fluorophenyl)-3-(6-chloro-1H-imidazo[4,5-c]pyridin-2-y1)-1,6-naphthyridin-2(1H)-one [Example 30] |
| – | 4.9 nM | 94 nM | C[C@@H]1COCCN1c1nc(Cl)cc2[nH]c(-c3cc4c(C5(C)CC5)nccc4[nH]c3=O)nc12 [Example 2, 3-{6-chloro-4-[(3R)-3-methylmorpholin-4-yl]-1H-imidazo[4,5-c]pyridin-2-yl}-5-(1-methylcyclopropyl)-1,6-naphthyridin-2(1H)-one] |
| – | 4.6 nM | 161 nM | C[C@@H]1COCCN1c1nc(Cl)cc2[nH]c(-c3cc4cnc(C5=CCCN(C)C5)cc4[nH]c3=O)nc12 [Example 3, 3-{6-chloro-4-[(3R)-3-methylmorpholin-4-yl]-1H-imidazo[4,5-c]pyridin-2-yl}-7-(1-methyl-1,2,5,6-tetrahydropyridin-3-yl)-1,6-naphthyridin-2(1H)-one] |
| – | 2.4 nM | 41 nM | O=c1[nH]c2ccncc2cc1-c1nc2c(N3CCOC[C@H]3C(F)F)nc(Cl)cc2[nH]1 [Example 4, 3-{6-chloro-4-[(3S)-3-(difluoromethyl)morpholin-4-yl]-1H-imidazo[4,5-c]pyridin-2-yl}-1,6-naphthyridin-2(1H)-one] |
| – | 1.4 nM | 30 nM | CN(c1nc(Cl)cc2[nH]c(-c3cc4cnccc4[nH]c3=O)nc12)[C@H]1CC[C@H](O)CC1 [Example 5, 3-{6-chloro-4-[(trans-4-hydroxycyclohexyl)(methyl)amino]-1H-imidazo[4,5-c]pyridin-2-yl}-1,6-naphthyridin-2(1H)-one] |
| – | 1.4 nM | 8.6 nM | CC(C1CCOCC1)N(C)c1nc(Cl)cc2[nH]c(-c3cc4cnccc4[nH]c3=O)nc12 (stereo not shown) [Example 6, 3-(6-chloro-4-{methyl[1-(tetrahydro-2H-pyran-4-yl)ethyl]amino}-1H-imidazo[4,5-c]pyridin-2-yl)-1,6-naphthyridin-2(1H)-one] |
| – | 6 nM | 95 nM | C[C@@H](Nc1nc(Cl)cc2[nH]c(-c3cc4c(N5CCN(C)CC5)nccc4[nH]c3=O)nc12)C(F)(F)F [Example 7, 3-(6-chloro-4-{[(2R)-1,1,1-trifluoropropan-2-yl]amino}-1H-imidazo[4,5-c]pyridin-2-yl)-5-(4-methylpiperazin-1-yl)-1,6-naphthyridin-2(1H)-one] |
| – | 4 nM | 122 nM | NC1CN(c2nc(Cl)cc3[nH]c(-c4cc5cnccc5[nH]c4=O)nc23)CC(F)(F)C1 (stereo not shown) [Example 9, 3-[4-(5-amino-3,3-difluoropiperidin-1-yl)-6-chloro-1H-imidazo[4,5-c]pyridin-2-yl]-1,6-naphthyridin-2(1H)-one trifluoroacetate] |
| – | 0.57 nM | 43 nM | Cc1cc2[nH]c(=O)c(-c3nc4c(C5CCOCC5)nc(Cl)cc4[nH]3)cc2c(C)n1 [Example 18, 3-[6-chloro-4-(tetrahydro-2H-pyran-4-yl)-1H-imidazo[4,5-c]pyridin-2-yl]-5,7-dimethyl-1,6-naphthyridin-2(1H)-one] |
| – | 2 nM | 13 nM | CCCc1nc(Cl)cc2[nH]c(-c3cc4c(C)nccc4[nH]c3=O)nc12 [Example 20, 3-(6-chloro-4-propyl-1H-imidazo[4,5-c]pyridin-2-yl)-5-methyl-1,6-naphthyridin-2(1H)-one] |
| – | 2.2 nM | 76 nM | Nc1cccc(-c2nc(Cl)cc3[nH]c(-c4cc5cnccc5[nH]c4=O)nc23)c1 [Example 24, 3-[4-(3-aminophenyl)-6-chloro-1H-imidazo[4,5-c]pyridin-2-yl]-1H-1,6-naphthyridin-2-one trifluoroacetate] |
| – | 1.8 nM | 39 nM | O=c1[nH]c2ccncc2cc1-c1nc2c(-c3ccccc3F)nc(Cl)cc2[nH]1 [Example 25, 3-[6-chloro-4-(2-fluorophenyl)-1H-imidazo[4,5-c]pyridin-2-yl]-1,6-naphthyridin-2(1H)-one] |
| – | 1 nM | 2.8 nM | CCc1nc(Cl)cc2[nH]c(-c3cc4c(-c5ccccc5F)nccc4[nH]c3=O)nc12 [Example 27, 3-(6-chloro-4-ethy1-1H-imidazo[4,5-c]pyridin-2-y1)-5-(2-fluorophenyl)-1,6-naphthyridin-2(1H)-one] |
| – | 3 nM | 48 nM | Cc1c(OC(F)F)cccc1-c1nccc2[nH]c(=O)c(-c3nc4cnc(Cl)cc4[nH]3)cc12 [Example 33, 3-(6-chloro-1H-imidazo[4,5-c]pyridin-2-y1)-5-[3-(difluoromethoxy)-2-methylpheny1]-1,6-naphthyridin-2(1H)-one] |
| – | 1.9 nM | 19 nM | [2H]C([2H])([2H])Oc1ccccc1-c1nccc2[nH]c(=O)c(-c3nc4c(C5CC5)nc(Cl)cc4[nH]3)cc12 [Example 39, 3-(6-chloro-4-cyclopropyl-1H-imidazo[4,5-c]pyridin-2-yl)-5-{2-[(^2H3)methyloxy]phenyl}-1,6-naphthyridin-2(1H)-one] |
| – | 0.53 nM | 11 nM | [2H]C([2H])([2H])Oc1ccccc1-c1nccc2[nH]c(=O)c(-c3nc4c(C(C)O)nc(Cl)cc4[nH]3)cc12 (stereo not shown) [Example 40, 3-[6-chloro-4-(1-hydroxyethyl)-1H-imidazo[4,5-c]pyridin-2-yl]-5-{2-[(^2H3)methyloxy]phenyl}-1,6-naphthyridin-2(1H)-one] |
| – | 1.1 nM | 4.8 nM | [2H]C([2H])([2H])Oc1ccccc1-c1nccc2[nH]c(=O)c(-c3nc4c(C(C)F)nc(Cl)cc4[nH]3)cc12 (stereo not shown) [Example 41, 3-[6-chloro-4-(1-fluoroethyl)-1H-imidazo[4,5-c]pyridin-2-yl]-5-{2-[(^2H3)methyloxy]phenyl}-1,6-naphthyridin-2(1H)-one] |
| – | 2.6 nM | 124 nM | [2H]C([2H])([2H])Oc1ccccc1-c1nccc2[nH]c(=O)c(-c3nc4c(CC(=O)NC(C)(C)C)nc(Cl)cc4[nH]3)cc12 [Example 42, N-tert-butyl-2-[6-chloro-2-(5-{2-[(^2H3)methyloxy]phenyl}-2-oxo-1,2-dihydro-1,6-naphthyridin-3-yl)-1H-imidazo[4,5-c]pyridin-4-yl]acetamide] |
| – | 0.97 nM | 24 nM | [2H]C([2H])([2H])Oc1ccccc1-c1nccc2[nH]c(=O)c(-c3nc4c(N5CCNC(=O)C5)nc(Cl)cc4[nH]3)cc12 [Example 43, 3-[6-chloro-4-(3-oxopiperazin-1-yl)-1H-imidazo[4,5-c]pyridin-2-yl]-5-{2-[(^2H3)methyloxy]phenyl}-1,6-naphthyridin-2(1H)-one] |
| – | 0.5 nM | 54 nM | [2H]C([2H])([2H])Oc1ccccc1-c1nccc2[nH]c(=O)c(-c3nc4c(N=S(C)(C)=O)nc(Cl)cc4[nH]3)cc12 [Example 44, 3-(6-chloro-4-{[dimethyl(oxide)-A6-sulfanylidene]amino}-1H-imidazo[4,5-c]pyridin-2-yl)-5-{2-[(^2H3)methyloxy]phenyl}-1,6-naphthyridin-2(1H)-one] |
